Measurements as given in patent US20250197373A1, “SMALL MOLECULE COMPOUND OR SALT THEREOF OR SOLVATE OF THEM, GUANINE NUCLEOTIDE-BINDING PROTEIN G(Q) SUBUNIT ALPHA (GNAQ) INHIBITOR CONTAINING THE SAME AND METHOD FOR TREATING AND/OR PREVENTING CANCER” (INDUSTRIAL TECHNOLOGY RESEARCH INSTITUTE, priority 2023, published 2025).

Experiments:
GNAQ (WT) = biological target: T1, GNAQ (WT) (Homo sapiens, UniProt P50148); assay: SRE luciferase reporter gene-HEK293 cell line, GNAQ (WT); format: cell-based; conditions: Cell type WT, 20% FBS induction, read-out: GNAQ inhibitory rate; for inhibition at 0.9 µM: analytical concentration 900 nM; for inhibition at 2.7 µM: analytical concentration 2,700 nM; for inhibition at 8.1 µM: analytical concentration 8,100 nM
T1 construct: BPS Bioscience (parental reporter cell line) 60406
T1 sequence (P50148 1-359): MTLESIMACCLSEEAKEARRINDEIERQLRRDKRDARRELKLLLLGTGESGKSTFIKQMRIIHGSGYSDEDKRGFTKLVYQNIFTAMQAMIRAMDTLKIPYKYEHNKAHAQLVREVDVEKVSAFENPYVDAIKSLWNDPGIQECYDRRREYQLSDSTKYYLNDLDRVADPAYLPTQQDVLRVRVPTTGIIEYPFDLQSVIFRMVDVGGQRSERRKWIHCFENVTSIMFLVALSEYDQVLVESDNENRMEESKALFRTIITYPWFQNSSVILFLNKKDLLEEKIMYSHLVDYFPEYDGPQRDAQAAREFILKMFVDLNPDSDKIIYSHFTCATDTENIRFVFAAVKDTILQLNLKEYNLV
Protocol: 7.5×10^4 SRE-293-GNAQ (WT) or SRE-293-GNAQ (T96S) cell lines were seeded in a 24-well plate and cultured in a carbon dioxide incubator at 37° C. SRE-293-GNAQ (WT) or SRE-293-GNAQ (T96S) cell lines was derived from additionally transfecting SRE Reporter—HEK293 Recombinant Cell Line (ERK Pathway) (Catalog number: 60406; BPS Bioscience) cells with an expression vector separately expressing GNAQ (WT) or GNAQ (T96S), and screening a stable expression cell line by the antibiotic, geneticin (type number 10131035; Thermo Fisher Scientific). GNAQ (WT) or GNAQ (T96) expression vector was derived from gene synthesis and point mutation modification of GenScript company's customized services.
After 48 hours of culture, the culture medium in the 24-well plate was replaced with minimal essential medium (MEM) containing only 0.1% fetal bovine serum (FBS) and the cells were cultured overnight.
After overnight culture, the compound to be tested was added to the cells and reacted for 2 hours, and the medium at this point was still MEM medium containing only 0.1% fetal bovine serum. After reacting with the compound to be tested for 2 hours, fetal bovine serum at a final concentration of 20% was added to the cells and reacted for at least 4 hours. After the reaction, the supernatant was removed. Next, 100 μL of cell lysis reagent CelLytic M Cell Lysis Reagent (Catalog number: C2978; Sigma) was added to the cells and aspirated repeatedly several times to form a cell lysate solution with the cells. The cell lysate solution was collected in a microcentrifuge tube and centrifuged at a high speed of 14,000 rpm for 5 minutes. After that, 30 μL of supernatant was taken out and placed in a 96-well white plate for luminescence analysis, and 30 μL of firefly luminescence analysis reagent (Catalog No. E1501; Promega) diluted 3-fold was added and mixed well, and then luminescence detection was performed with a plate enzyme immunoassay analyzer (ELISA reader) to evaluate the effect of the compound to be tested on MAPK signaling induced by GNAQ through the expression of the firefly luciferase reporter gene.
In order to confirm the effect of the compounds on MAPK signaling induced by GNAQ, the screened SRE-HEK293 cells capable of expressing exogenous GNAQ (WT) and GNAQ (T96S) genes were subjected to overnight serum starvation, and 2 hours before induction with 20% fetal bovine serum, the compound to be tested (one of Compound 1 to Compound 15 prepared above) was added to the cells, and after serum induction, the expression of the firefly luciferase reporter gene was measured. Through the above steps, the inhibition of the compound to be tested on GNAQ expression could be evaluated through the expression of the reporter gene in cells.

MCF-7 cells = assay: Inhibition of growth of mammary gland cancer cells MCF-7 (PrestoBlue); format: cell-based; conditions: Homo sapiens, MCF7, 168 h, 7 days culture, 2% fetal bovine serum, read-out: Inhibitory activity (evaluated by IC50)
Protocol: Human mammary gland cancer cells, MCF-7 cells and MCF-7 GNAQ (T96S) cells (MCF-7 cells expressing GNAQ (T96S) after GNAQ gene deletion) were cultured in MEM medium.
1×10^3 of the cells mentioned above were seeded in a 96-well plate and cultured overnight (at least 16 hours) in a carbon dioxide incubator.
After overnight incubation, the supernatant was removed. Next, after 200 μL of cell culture medium (containing 2% fetal bovine serum) containing different concentrations of test compound was added to each well of the 96-well plate, the 96-well plate was placed in a 5% carbon dioxide incubator at 37° C. for 7 days further culture. After that, an additional 30 μL of diluted PrestoBlue™ Cell Viability Reagent (Catalog Number: A13261; Thermo Fisher Scientific) (4 μL stock solution and 26 μL culture medium) was added to each well of the 96-well plate and the reaction was continued for further about 1 hour.
Finally, the fluorescence value at the wavelength of 535/615 nm of each well was read with a plate enzyme immunoassay analyzer, and the inhibitory rate of the compound on mammary gland cancer cells were calculated using the following formula.
Moreover, the half maximal inhibitory concentration (IC50) of the compound on the growth of mammary gland cancer cells was calculated with the inhibitory rate of the compound on mammary gland cancer cells at each concentration through the online half maximal inhibitory concentration (IC50) calculation software, IC50 Calculator, provided by AAT Bioquest company on its website (https://www.aatbio.com/tools/ic50-calculator).
Finally, the inhibition of the compound on the growth of mammary gland cancer cells was evaluated by the calculated half maximal inhibitory concentration (IC50) of the compound on the growth of mammary gland cancer cells.
The inhibition of the compound on the growth of breast cancer cells was evaluated by the half maximal inhibitory concentration (IC50) of the compound (one of Compound 1 to Compound 15 prepared above) on the growth of mammary gland cancer cells through the human mammary gland cancer cell line MCF-7 and the human mammary gland cancer cell line MCF-7 GNAQ (T96S) expressing the mutated gene.

Compound	inhibition at 0.9 µM (GNAQ (WT)) [%]	inhibition at 2.7 µM (GNAQ (WT)) [%]	inhibition at 8.1 µM (GNAQ (WT)) [%]	IC50 (MCF-7 cells) [nM]
O=C(Nc1ccc(-c2ccnc(-c3ccncc3)n2)cc1)Nc1ccc(Cl)c(C(F)(F)F)c1 [Compound 6]	< 10	10 to 39	10 to 39	310 to 2500
N#Cc1cccc(-c2cccc(-c3ccc(NC(=S)Nc4cc(Cl)nc(Cl)c4)cc3)n2)c1 [Compound 11]	10 to 39	40 to 70	> 70	310 to 2500
O=C(Nc1cccc(-c2ccnc(-c3cccc(C(F)(F)F)c3)n2)c1)Nc1cc(Cl)nc(Cl)c1 [Compound 2]	10 to 39	10 to 39	> 70	310 to 2500
N#Cc1cccc(-c2nccc(-c3cccc(NC(=O)Nc4cc(Cl)nc(Cl)c4)c3)n2)c1 [Compound 3]	10 to 39	10 to 39	> 70	310 to 2500
O=C(Nc1ccc(-c2nc(-c3ccccc3)ncc2Cl)cc1)Nc1cc(Cl)nc(Cl)c1 [Compound 15]	< 10	10 to 39	> 70	< 310
O=C(Nc1ccc(-c2cccc(-c3ccncc3)n2)cc1)Nc1ccc(Cl)c(C(F)(F)F)c1 [Compound 12]	10 to 39	10 to 39	40 to 70	310 to 2500
O=C(Nc1cccc(-c2cc(-c3cccc(C(F)(F)F)c3)ncn2)c1)Nc1cc(Cl)nc(Cl)c1 [Compound 14]	< 10	10 to 39	40 to 70	< 310
O=C(Nc1cccc(-c2ccnc(-c3cccc(C(F)(F)F)c3)n2)c1)c1cc(Cl)nc(Cl)c1 [Compound 5]	< 10	10 to 39	< 10	310 to 2500
O=C(Nc1cccc(-c2ccnc(-c3ccc(F)c(F)c3)n2)c1)Nc1cc(Cl)nc(Cl)c1 [Compound 4]	< 10	10 to 39	40 to 70	310 to 2500
O=C(Nc1cccc(-c2ccnc(-c3ccnc(Cl)c3)n2)c1)Nc1cc(Cl)nc(Cl)c1 [Compound 1]	< 10	10 to 39	> 70	310 to 2500
O=C(Nc1cccc(-c2cccc(-c3ccncc3)n2)c1)Nc1cc(Cl)nc(Cl)c1 [Compound 13]	10 to 39	40 to 70	> 70	310 to 2500
O=C(Nc1ccc(-c2ccnc(-c3cccc(C(F)(F)F)c3)n2)cc1)Nc1cc(Cl)nc(Cl)c1 [Compound 7]	< 10	< 10	10 to 39	310 to 2500
O=C(Nc1ccc(-c2ccnc(-c3cccc(C(F)(F)F)c3)n2)cc1)Nc1ccc(Cl)c(C(F)(F)F)c1 [Compound 8]	< 10	< 10	< 10	310 to 2500
FC(F)(F)c1cccc(-c2cccc(-c3ccc(NC(=S)Nc4cc(Cl)nc(Cl)c4)cc3)n2)c1 [Compound 10]	10 to 39	40 to 70	> 70	310 to 2500
O=C(Nc1ccc(-c2cccc(-c3cccc(C(F)(F)F)c3)n2)cc1)Nc1cc(Cl)nc(Cl)c1 [Compound 9]	10 to 39	10 to 39	> 70	310 to 2500
